According to patent US20130022641A1, “Anti-Tumor Agent and Immunostimulating Agent” (ORION BREWERIES, LTD., priority 2005, published 2013):

What was measured:
Assay type in all cases: in vivo, C57BL/6 mice
NKT cells (CD3+NK1.1+) = assay: Annexin V detection of apoptosis in liver NKT cell fractions; conditions: 2 μg/mouse; 24 hours after dosing; normal mice peak around 10
Method: (§1) The basic method for the experiment is the same as that of the third embodiment. C57BL/6 8th-week mice were used. […] And 2 μg/mouse of αGalcer was likewise administered. After 24 hours following the dosing, lymphocytes had been separated from the livers of the mice over time. Triple labeling immunostaining was undertaken by fluorescently-labeled monoclonal antibody based on […] anti-CD3 antibody (Pharmingen) and PE-labeled anti-NK1.1 antibody (Pharmingen) for detection of NKT cells (CD3^+NK1.1^+), and FITC labeled Annexin V (Pharmingen) for detection of apoptosis cells. The method for immunostaining was subject to that of Non-Patent Document 1. Next, PerCP and PE were detected via flow cytometric analysis (FACSCalibur, Becton-Dickinson). Based on the fluorescence intensity thereof, NKT cells fractions (areas shown in c of FIG. 13) were obtained. […] According to the embodiment, cells which caused apoptosis within the fractions were detected via measurement of fluorescence intensity of FITC in such fractions. […]
(§2) Histograms of mouse NKT cell fractions and T cell fractions of unprocessed normal mouse cells are shown (A and D). […] The fluorescence intensity of fluorescent substance C is shown on the horizontal axis and the number of cells (in units) is shown on the vertical axis for each profile. […]

NKT cells of the liver = assay: Flow cytometric analysis of liver NKT cells after intraperitoneal administration; conditions: 2 μg/mouse, abdominal cavity
Method: C57BL/6 8th-week mice were used. […] Additionally, individuals that received 2 μg/mouse were used as positive controls. After dosing, lymphocytes were separated from the livers of the mice over time. Double labeling immunostaining was undertaken with 2 types of h monoclonal antibodies. FITC-labeled anti-CD3 (Phatrningen) and PE-labeled anti-NK1.1 (Pharmingen). Thereafter, flow cytometric analysis (FACSCalibur, Becton-Dickinson) was undertaken for dynamic states of NKT cells. In addition, a method of lymphocyte separation from the livers and the immunostaining method were subject to the methods of Non-Patent Document 7.
Cytograms show fluorescence intensities for FITC-labeled anti-CD3 on the horizontal axis and PE-labeled anti-NK1.1 antibody on the vertical axis in a log scale fashion. The larger the fluorescence intensities for FITC, the greater the number of CD3 molecules on the surfaces of cells. And the larger the PE fluorescence intensities, the greater the number of NK1.1 molecules on the measured surfaces of cells. […] Additionally, numeric values within the fractions represent the percentages of cells included in such fractions relative to all measured cells.

T cells = assay: Annexin V detection of apoptosis in liver T cell fractions (control); conditions: 2 μg/mouse; 24 hours after dosing
Method: as §1, §2

GPT = assay: Transaminase values in the serums (GPT), liver damage; conditions: 2 μg/mouse, serum, normal mice about 11 IU/L
Method: The mice prepared in the third embodiment were used. After collecting about 1 ml of blood from each mouse over time, serums were separated. Transaminase values in the serums (GPT) were measured using of a Transaminase CII Test Wake (Wake Pure Chemical Industries, Ltd) as an extracorporeal diagnostic kit. The method for measurement was subject to the protocol attached with the kit. In addition, generally speaking, red cells of mice are easily hemolyzed. Thus. GOT values regarding which errors easily occur to results of measurements are not presented herein.
Herein, first, brief explanations are given in regards to GPT in the serums. GPT normally functions in liver cells. Due to destruction of […] caused by liver damage, such as hepatitis and the like, GPT leaks into the blood. Thus, increase of GPT values in the blood is an index of liver damage. Generally, it is understood that liver damage, such as hepatitis and the like, exists when the figures are greater than 100 IU (international unit)/L (liter).

INF-γ = assay: Level of INF-γ in serum by ELISA; conditions: 2 μg/mouse αGalcer, normal mouse about 40 μg/ml, FIG. 14
Method: Mice prepared in the third embodiment were used. After about 1 ml of blood had been collected from each mouse over time, serum was separated. The level of INF-γ in such serum was measured in accordance with the ELISA test. In regards to the ELISA test, a BD Opt EIA set (Pharmingen) was used, and the method was subject to the attached protocol.

Structure (SMILES): CCCCCCCCCCCCCCCCCCCCCCCCCC(=O)N[C@@H](CO[C@H]1O[C@H](CO)[C@H](O)[C@H](O)[C@H]1O)[C@H](O)[C@H](O)CCCCCCCCCCCCCC [αGalCer, a-Galactosyl ceramide]
- peak of Annexin V fluorescence intensity in NKT cell fraction (NKT cells (CD3+NK1.1+)): ~200
- NKT cells in the liver (NKT cells of the liver; 24 hours following administration): such tendency had not changed
- NKT cells in the liver (NKT cells of the liver; within 12 hours following dosing): most NKT cells in the liver disappeared
- apoptosis induction in T cells (T cells): Apoptosis induction could not be recognized
- GPT values (GPT; after 12 hours): 116 IU/L
- GPT values (GPT; after 24 hours): 183 IU/L
- level of INF-γ in the blood (INF-γ): about 3,000 μg/ml
